Assay results taken from US8134015B2, “Compound inhibiting in vivo phosphorous transport and medicine containing the same” (Kyowa Hakko Kirin Co., Ltd., priority 2003, dated 2012).

Legend:
human NaPi-2a = molecular target: T1, human NaPi-2a (Homo sapiens, UniProt Q06495); assay: Sodium-dependent phosphate uptake of Xenopus oocytes which expressed NaPi-2a (32P); assay type: cell-based; settings: phosphate uptake, Xenopus oocytes expressing human NaPi-2a; five concentration levels
T1 construct: expressed in transfected cells
T1 sequence (Q06495 1-639): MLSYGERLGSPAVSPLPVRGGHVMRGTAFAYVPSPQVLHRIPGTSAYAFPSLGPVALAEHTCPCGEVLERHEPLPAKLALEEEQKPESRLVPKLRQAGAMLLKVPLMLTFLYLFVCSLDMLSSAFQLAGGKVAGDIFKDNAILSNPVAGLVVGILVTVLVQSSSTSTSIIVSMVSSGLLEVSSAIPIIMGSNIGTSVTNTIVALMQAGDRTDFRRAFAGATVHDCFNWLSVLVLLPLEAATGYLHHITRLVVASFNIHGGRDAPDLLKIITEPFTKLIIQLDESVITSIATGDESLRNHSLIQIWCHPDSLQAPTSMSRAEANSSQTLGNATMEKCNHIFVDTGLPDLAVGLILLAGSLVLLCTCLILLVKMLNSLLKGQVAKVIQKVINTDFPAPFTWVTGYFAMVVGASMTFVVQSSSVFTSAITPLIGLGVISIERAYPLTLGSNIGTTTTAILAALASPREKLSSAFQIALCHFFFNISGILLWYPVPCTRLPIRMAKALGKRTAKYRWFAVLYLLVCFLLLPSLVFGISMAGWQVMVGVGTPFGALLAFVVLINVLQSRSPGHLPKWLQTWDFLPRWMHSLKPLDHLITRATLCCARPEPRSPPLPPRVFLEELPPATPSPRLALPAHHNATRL
Text: Experiment of Sodium-Dependent Phosphate Uptake of Xenopus oocytes which Expressed NaPi-2a
In the test, a group with the addition of choline chloride (Choline Cl) was used as a negative control for nonspecific uptake, and PFA (phosphonoformic acid) was used as a positive control for phosphate transport inhibition.

rat NaPi-2b = molecular target: T2, rat NaPi-2b (Rattus norvegicus, UniProt Q9JJ09); assay: Sodium-dependent phosphate uptake of Xenopus oocytes which expressed NaPi-2b (32P); assay type: cell-based; settings: Xenopus oocytes expressing rat NaPi-2b, 32P radioactive phosphorus; read-out: IC50 (phosphate uptake inhibitory activity)
T2 construct: expressed in transfected cells; host or cells: Xenopus oocytes injected with cRNA
T2 sequence (Q9JJ09 1-695): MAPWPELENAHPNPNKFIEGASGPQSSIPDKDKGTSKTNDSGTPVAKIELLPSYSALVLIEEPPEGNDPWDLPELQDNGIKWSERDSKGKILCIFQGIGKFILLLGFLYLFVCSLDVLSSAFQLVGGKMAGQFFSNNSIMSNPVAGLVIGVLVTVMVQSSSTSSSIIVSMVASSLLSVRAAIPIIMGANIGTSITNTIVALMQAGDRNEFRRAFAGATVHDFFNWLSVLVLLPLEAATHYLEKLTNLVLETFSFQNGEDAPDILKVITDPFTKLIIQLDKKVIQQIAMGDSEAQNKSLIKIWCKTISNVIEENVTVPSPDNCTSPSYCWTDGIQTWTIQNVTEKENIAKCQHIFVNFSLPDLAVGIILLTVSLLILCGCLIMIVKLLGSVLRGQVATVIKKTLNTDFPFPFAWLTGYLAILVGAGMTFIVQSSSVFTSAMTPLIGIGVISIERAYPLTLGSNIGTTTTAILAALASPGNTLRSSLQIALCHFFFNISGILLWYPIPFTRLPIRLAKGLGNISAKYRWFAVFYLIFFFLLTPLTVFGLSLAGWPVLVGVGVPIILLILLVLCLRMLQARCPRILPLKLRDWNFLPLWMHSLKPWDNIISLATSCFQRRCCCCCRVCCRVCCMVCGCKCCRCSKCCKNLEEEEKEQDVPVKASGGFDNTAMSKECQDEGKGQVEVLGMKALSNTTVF
How it was run: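 Steps: rat NaPi-2b cDNA cloned from small intestine; cRNA made and injected into oocytes; 2-day expression; 32P phosphate uptake with compound; % inhibition at 300/100 μM taken from one curve.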

SMILES | IC50 (human NaPi-2a) | IC50 (rat NaPi-2b)
CC(O)CN(Cc1cccc(C(=O)Nc2sc3c(c2C(=O)N/N=C/c2ccc(Cl)c(C(F)(F)F)c2)CCCC3)c1)CC(C)O (stereo not shown) [Compound 631, 3-{[Bis-(2-hydroxy-propyl)-amino]-methyl}-N-[3-(4-chloro-3-trifluoromethyl-benzylidene-hydrazinocarbonyl)-4,5,6,7-tetrahydro-benzo[b]thiophen-2-yl]-benzamide] | 2.43 µM | < 1 µM
COc1ccc(/C=N/NC(=O)c2c(NC(=O)c3cccc(CN(CC(C)O)CC(C)O)c3)sc3c2CCCC3)cc1 (stereo not shown) [Compound 632, 3-{[Bis-(2-hydroxy-propyl)-amino]-methyl}-N-[3-(4-methoxy-benzylidene-hydrazinocarbonyl)-4,5,6,7-tetrahydro-benzo-[b]thiophen-2-yl]-benzamide] | 28.7 µM | < 1 µM
Cc1ccc(/C=N/NC(=O)c2c(NC(=O)c3cccc(CN4CCC(O)CC4)c3)sc3c2CCCC3)cc1C [Compound 633, N-[3-(3,4-Dimethyl-benzylidene-hydrazinocarbonyl)-4,5,6,7-tetrahydro-benzo[b]thiophen-2-yl]-3-(4-hydroxy-piperidin-1-ylmethyl)-benzamide] | 13.5 µM | 1.19 µM
Cc1ccc(/C=N/NC(=O)c2c(NC(=O)c3cccc(CN4CCC(O)CC4)c3)sc3c2CCCC3)cc1 [Compound 634, 3-(4-Hydroxy-piperidin-1-ylmethyl)-N-[3-(4-methyl-benzylidene-hydrazinocarbonyl)-4,5,6,7-tetrahydro-benzo[b]thiophen-2-yl]-benzamide] | 16.9 µM | 1.74 µM
O=C(Nc1sc2c(c1C(=O)N/N=C/c1ccc(F)cc1)CCCC2)c1cccc(CN2CCC(O)CC2)c1 [Compound 635, N-[3-(4-Fluoro-benzylidene-hydrazinocarbonyl)-4,5,6,7-tetrahydro-benzo[b]thiophen-2-yl]-3-(4-hydroxy-piperidin-1-ylmethyl)-benzamide] | 1.34 µM | 1.56 µM
O=C(Nc1sc2c(c1C(=O)N/N=C/c1cccc(F)c1)CCCC2)c1cccc(CN2CCC(O)CC2)c1 [Compound 636, N-[3-(3-Fluoro-benzylidene-hydrazinocarbonyl)-4,5,6,7-tetrahydro-benzo[b]thiophen-2-yl]-3-(4-hydroxy-piperidin-1-ylmethyl)-benzamide] | 5.3 µM | 3.89 µM
O=C(Nc1sc2c(c1C(=O)N/N=C/c1ccc(Cl)c(C(F)(F)F)c1)CCCC2)c1cccc(CN2CCC(O)CC2)c1 [Compound 637, N-[3-(4-Chloro-3-trifluoromethyl-benzylidene-hydrazinocarbonyl)-4,5,6,7-tetrahydro-benzo[b]thiophen-2-yl]-3-(4-hydroxy-piperidin-1-ylmethyl)-benzamide] | 0.95 µM | < 1 µM
COc1ccc(/C=N/NC(=O)c2c(NC(=O)c3cccc(CN4CCC(O)CC4)c3)sc3c2CCCC3)cc1 [Compound 638, 3-(4-Hydroxy-piperidin-1-ylmethyl)-N-[3-(4-methoxy-benzylidene-hydrazinocarbonyl)-4,5,6,7-tetrahydro-benzo[b]thiophen-2-yl]-benzamide] | 4.22 µM | 3.15 µM
Cc1ccc(/C=N/NC(=O)c2c(NC(=O)c3cccc(CN4CCC(CO)CC4)c3)sc3c2CCCC3)cc1C [Compound 639, N-[3-(3,4-Dimethyl-benzylidene-hydrazinocarbonyl)-4,5,6,7-tetrahydro-benzo[b]thiophen-2-yl]-3-(4-hydroxymethyl-piperidin-1-ylmethyl)-benzamide] | 11.1 µM | 1.84 µM
Cc1ccc(/C=N/NC(=O)c2c(NC(=O)c3cccc(CN4CCC(CO)CC4)c3)sc3c2CCCC3)cc1 [Compound 640, 3-(4-Hydroxymethyl-piperidin-1-ylmethyl)-N-[3-(4-methyl-benzylidene-hydrazinocarbonyl)-4,5,6,7-tetrahydro-benzo[b]thiophen-2-yl]-benzamide] | 15.6 µM | 1.61 µM
O=C(Nc1sc2c(c1C(=O)N/N=C/c1ccc(F)cc1)CCCC2)c1cccc(CN2CCC(CO)CC2)c1 [Compound 641, N-[3-(4-Fluoro-benzylidene-hydrazinocarbonyl)-4,5,6,7-tetrahydro-benzo[b]thiophen-2-yl]-3-(4-hydroxymethyl-piperidin-1-ylmethyl)-benzamide] | 7.53 µM | 2.92 µM
O=C(Nc1sc2c(c1C(=O)N/N=C/c1cccc(F)c1)CCCC2)c1cccc(CN2CCC(CO)CC2)c1 [Compound 642, N-[3-(3-Fluoro-benzylidene-hydrazinocarbonyl)-4,5,6,7-tetrahydro-benzo[b]thiophen-2-yl]-3-(4-hydroxymethyl-piperidin-1-ylmethyl)-benzamide] | 13.3 µM | 2.14 µM
Cc1ccc(/C=N/NC(=O)c2c(C)csc2NC(=O)c2cccc(CN(CCO)CCO)c2)cc1C [Compound 786, 3-{[Bis-(2-hydroxy-ethyl)-amino]-methyl}-N-[3-(3,4-dimethyl-benzylidene-hydrazinocarbonyl)-4-methyl-thiophen-2-yl]-benzamide] | < 3 µM | 1.33 µM
Cc1ccc(/C=N/NC(=O)c2c(C)csc2NC(=O)c2cccc(CN(CCO)CCO)c2)cc1 [Compound 787, 3-{[Bis-(2-hydroxy-ethyl)-amino]-methyl}-N-[4-methyl-3-(4-methyl-benzylidene-hydrazinocarbonyl)-thiophen-2-yl]-benzamide] | < 3 µM | 1.69 µM
Cc1csc(NC(=O)c2cccc(CN(CCO)CCO)c2)c1C(=O)N/N=C/c1ccc(F)cc1 [Compound 788, 3-{[Bis-(2-hydroxy-ethyl)-amino]-methyl}-N-[3-(4-fluoro-benzylidene-hydrazinocarbonyl)-4-methyl-thiophen-2-yl]-benzamide] | 6.64 µM | 2.04 µM
Cc1csc(NC(=O)c2cccc(CN(CCO)CCO)c2)c1C(=O)N/N=C/c1cccc(F)c1 [Compound 789, 3-{[Bis-(2-hydroxy-ethyl)-amino]-methyl}-N-[3-(3-fluoro-benzylidene-hydrazinocarbonyl)-4-methyl-thiophen-2-yl]-benzamide] | 9.28 µM | 1.16 µM
COc1ccc(/C=N/NC(=O)c2c(C)csc2NC(=O)c2cccc(CN(CCO)CCO)c2)cc1 [Compound 791, 3-{[Bis-(2-hydroxy-ethyl)-amino]-methyl}-N-[3-(4-methoxy-benzylidene-hydrazinocarbonyl)-4-methyl-thiophen-2-yl]-benzamide] | 6.7 µM | 5.5 µM
Cc1ccc(/C=N/NC(=O)c2c(NC(=O)c3cccc(CN(CC(C)O)CC(C)O)c3)sc3ccccc23)cc1 (stereo not shown) [Compound 793, 3-{[Bis-(2-hydroxy-propyl)-amino]-methyl}-N-[3-(4-methyl-benzylidene-hydrazinocarbonyl)-benzo[b]thiophen-2-yl]-benzamide] | 8.46 µM | 1.41 µM
CC(O)CN(Cc1cccc(C(=O)Nc2sc3ccccc3c2C(=O)N/N=C/c2ccc(F)cc2)c1)CC(C)O (stereo not shown) [Compound 794, 3-{[Bis-(2-hydroxy-propyl)-amino]-methyl}-N-[3-(4-fluoro-benzylidene-hydrazinocarbonyl)-benzo[b]thiophen-2-yl]-benzamide] | 9.57 µM | 0.97 µM
CC(O)CN(Cc1cccc(C(=O)Nc2sc3ccccc3c2C(=O)N/N=C/c2cccc(F)c2)c1)CC(C)O (stereo not shown) [Compound 795, 3-{[Bis-(2-hydroxy-propyl)-amino]-methyl}-N-[3-(3-fluoro-benzylidene-hydrazinocarbonyl)-benzo[b]thiophen-2-yl]-benzamide] | 8.52 µM | 1.92 µM
